Patent publication US9908848B2, “Amide derivatives of lactam based N-acylethanolamine acid amidase (NAAA) inhibitors” (The Regents of the University of California, priority 2013, dated 2018)
Each block holds one molecule with its values, some of them ahead of it.

Key:
r-NAAA = biological target: T1, r-NAAA (Rattus norvegicus, UniProt Q5KTC7); assay: UPLC/MS r-NAAA assay; format: biochemical; settings: for r-NAAA UPLC/MS assay (n.a.): @100 μM; for IC50: rat lung lysosomal NAAA preparation; for inhibition at 30 µM / inhibition at 3 µM: read-out: r-NAAA UPLC/MS assay % inhib.
T1 construct: Lysosomal NAAA protein preparation was obtained by homogenizing male Sprague-Dawley rat lungs; tissue Charles River; host or cells: male Sprague-Dawley rat lung, soluble lysosomal fraction
T1 sequence (Q5KTC7 34-362): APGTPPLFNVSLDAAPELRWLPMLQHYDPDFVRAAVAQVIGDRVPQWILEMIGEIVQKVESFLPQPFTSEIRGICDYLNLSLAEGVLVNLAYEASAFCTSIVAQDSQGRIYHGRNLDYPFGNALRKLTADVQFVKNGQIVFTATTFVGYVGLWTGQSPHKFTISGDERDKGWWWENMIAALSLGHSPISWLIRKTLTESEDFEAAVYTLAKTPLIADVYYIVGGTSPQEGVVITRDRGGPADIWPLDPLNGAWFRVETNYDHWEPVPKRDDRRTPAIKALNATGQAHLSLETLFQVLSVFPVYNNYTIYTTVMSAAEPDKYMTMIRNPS
Experimental: Lysosomal NAAA protein preparation was obtained by homogenizing male Sprague-Dawley rat lungs (Charles River) in 20 mM Tris-HCl buffer pH 7.4 containing 0.32M sucrose. Samples were centrifuged at 800×g for 15 min at 4° C. Supernatants were centrifuged at 12,000×g for 30 min at 4° C. Pellets were then resuspended in PBS pH 7.4 and subjected to a freeze/thaw cycle at −80° C. The suspension was finally centrifuged at 105,000 g for 1 h at 4° C. The supernatant was used in enzymatic assays.
NAAA preparations were pre-incubated with various concentrations of test compounds or vehicle control in 100 mM NaH2PO4/Citrate buffer, 1% Triton-X, 3 mM DTT (pH 4.5) for 30 min at 37° C. Samples were incubated with heptadecenoylethanolamide (50 μM, Avanti Polar Lipids) at 37° C. for 30 min. The reaction was terminated by addition of cold methanol containing heptadecanoic acid (NuCheck Prep) as internal standard. Samples were analyzed by UPLC/MS (Acquity, Waters). Heptadecenoic and heptadecanoic acids were eluted on an Acquity UPLC BEH C18 column (50 mm length, 2.1 mm i.d., 1.7 μm pore size, Waters) isocratically at 0.5 mL/min for 1.5 min with a solvent mixture of 95% methanol and 5% H2O, both containing 0.25% Acetic Acid and 5.0 mM ammonium acetate. The column temperature was 40° C. Electrospray ionization was in the negative mode, capillary voltage was 0.5 kV, cone voltage was […], desolvation temperature was 500° C. N2 was used as drying gas at a flow rate of 1000 L/hour and a temperature of 500° C. The [M−H]^− ion was monitored in the selected-ion monitoring mode (m/z values: heptadecenoic acid 267.37, heptadecanoic acid 269.37). Calibration curves were generated using commercial heptadecenoic acid (NuCheck Prep) Inhibition of NAAA activity was calculated as reduction of heptadecenoic acid in the samples compared to vehicle controls. IC50 values were calculated by non-linear regression analysis of log [concentration]/inhibition curves using GraphPad Prism 5 (GraphPad Software Inc., CA—USA) applying a standard slope curve fitting.

human NAAA = biological target: T2, human NAAA (Homo sapiens, UniProt Q02083); assay: Fluorogenic h-NAAA assay; format: biochemical; settings: for IC50: recombinant HEK-hNAAA preparation
T2 construct: made in house; host or cells: HEK293 cells, stably transfected; soluble fraction after freeze/thaw
T2 sequence (Q02083 29-359): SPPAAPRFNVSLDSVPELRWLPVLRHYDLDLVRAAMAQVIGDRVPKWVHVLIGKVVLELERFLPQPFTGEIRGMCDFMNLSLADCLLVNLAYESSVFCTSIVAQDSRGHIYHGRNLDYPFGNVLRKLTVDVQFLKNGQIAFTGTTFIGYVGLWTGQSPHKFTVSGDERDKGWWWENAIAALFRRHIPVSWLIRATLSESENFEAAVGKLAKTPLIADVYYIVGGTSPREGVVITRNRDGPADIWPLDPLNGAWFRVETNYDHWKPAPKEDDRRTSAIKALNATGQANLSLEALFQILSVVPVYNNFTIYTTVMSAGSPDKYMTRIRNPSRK
Experimental: Hek293 cells stably transfected with the human NAAA coding sequence cloned from a human spleen cDNA library were used as enzyme source. Recombinant HEK-hNAAA pellets were resuspended in homogenizing buffer, and sonicated. Samples were centrifuged at 800×g for 15 min at 4° C. and the supernatants were ultracentrifuged at 12,000×g for 30 min at 4° C. The pellets were resuspended in PBS pH 7.4 on ice and subjected to a freeze/thaw cycle at −80° C. (two freeze/thaw cycles at −80° C. for Examples 34-37). The suspension was finally centrifuged at 105,000×g for 1 h at 4° C. Protein concentration was measured and samples stored at −80° C. until use.
The assay was run in Optiplate 96-wells black plates, in a total reaction volume of 200 μL. NAAA protein preparation (4.0 μg for Examples except 34-37, which were 20.0 μg) was pre-incubated for 10 min with various concentrations of test compounds or vehicle control (5% DMSO) in 100 mM citrate/phosphate buffer (pH 4.5) containing 3.0 mM DTT, 0.1% Triton X-100, 0.05% BSA, 150 mM NaCl. N-(4-methyl-2-oxo-chromen-7-yl)-hexadecanamide was used as a substrate (5.0 μM) and the reaction carried over for 30 min at 37° C. The samples were then read in a Perkin Elmer Envision plate reader using an excitation wavelength of 360 nm and emission 460 nm. IC50 values were calculated by non-linear regression analysis of log [concentration]/inhibition curves using GraphPad Prism 5 (GraphPad Software Inc., CA—USA) applying a standard slope curve fitting.

[1] = biological target: T3, Rat AC (r-AC), Acid Ceramidase (Rattus norvegicus, UniProt Q6P7S1); assay: Rat AC (r-AC) assay, UPLC/MS; format: biochemical; settings: read-out: r-AC UPLC/MS assay % inhib.
T3 construct: V5 (C); His (C); made in house; host or cells: HEK293 cells transfected with pEF6-rAC-V5/His, selected with G418; soluble fraction after freeze/thaw
T3 sequence (Q6P7S1 21-394): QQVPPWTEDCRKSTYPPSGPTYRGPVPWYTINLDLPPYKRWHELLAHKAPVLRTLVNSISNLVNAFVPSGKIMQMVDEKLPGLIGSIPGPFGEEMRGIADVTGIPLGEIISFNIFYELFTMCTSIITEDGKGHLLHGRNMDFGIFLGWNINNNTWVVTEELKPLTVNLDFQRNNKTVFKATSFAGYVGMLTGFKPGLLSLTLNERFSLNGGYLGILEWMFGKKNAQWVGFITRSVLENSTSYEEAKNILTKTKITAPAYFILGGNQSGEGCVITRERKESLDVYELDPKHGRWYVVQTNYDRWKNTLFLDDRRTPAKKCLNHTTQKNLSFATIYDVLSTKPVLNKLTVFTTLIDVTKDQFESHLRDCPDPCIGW
Experimental: The selectivity of selected compounds versus Acid Ceramidase (AC) was determined.
Rat AC (r-AC) was cloned from a brain cDNA library using primers based on the sequence obtained from the National Center for Biotechnology Information (NCBI) database: 5′rAC (5′-GACCATGCTGGGCCGTAGT-3′) (SEQ ID NO:1) and 3′rAC (5′-CCAGCCTATACAAGGGTCT-3′) (SEQ ID NO:2). The PCR (High Fidelity PCR Master, Roche) product was subcloned into a pEF6-V5/His vector (Invitrogen) to construct a mammalian expression vector encoding V5/His-tagged rat AC. HEK293 cells were transfected with pEF6-rAC-V5/His using Super-Fect reagent (Qiagen) and screened with G418 (0.3 mg/mL). Cells were suspended in 20 mM Tris HCl (pH 7.5) containing 0.32M sucrose, sonicated and centrifuged at 800×g for 15 min at 4° C. The supernatants were centrifuged again at 12,000×g for 30 min at 4° C. The pellets were suspended in phosphate-buffered saline (PBS) and subjected to 2 freeze-thaw cycles at −80° C. The suspensions were centrifuged at 105,000×g for 1 hour at 4° C. The supernatants containing recombinant AC were kept at −80° C. until use. Protein concentration was measured using the bicinchoninic acid (BCA) assay (Pierce). Recombinant rat AC (50 μg) was preincubated with inhibitors (final DMSO concentration 1%) in assay buffer (100 mM sodium phosphate, 0.1% Nonidet P-40, 150 mM NaCl, 3 mM DTT, 100 mM sodium citrate, pH 4.5) for 30 min at 37° C. Reactions were started by the addition of 100 μM N-lauroyl ceramide (Nu-Chek Prep, Elysian, Minn.) and carried on for 30 min at 37° C. Reactions were stopped by addition of a mixture of chloroform/methanol (2:1, vol/vol) containing 1 nmol of heptadecanoic acid (HDA; NuChek Prep). The organic phases were collected, dried under N2, and analyzed by LC-MS in the negative-ion mode using […] (HDA) as internal standard (m/z=199 for lauric acid, m/z=269 for HDA). HDA was eluted on an XDB Eclipse C18 column isocratically at 2.2 mL/min for 1 min with a solvent mixture of 95% methanol and 5% water, both containing 0.25% acetic acid and 5 mM ammonium acetate. The column temperature was 50° C. Electrospray ionization (ESI) was in the negative mode, capillary voltage as 4 kV, and fragmentor voltage was 100 V. N2 was used as drying gas at a flow rate of 13 L/min and a temperature of 350° C. Nebulizer pressure was set at 60 psi. We monitored […] in the selected-ion monitoring (SIM) mode using HDA as internal standard. Calibration curves were generated using commercial lauric acid (Nu-Chek Prep; m/z=199).

[2] = test system: carrageenan-induced paw edema and heat hyperalgesia; assay: Carrageenan-induced inflammation (paw edema, heat hyperalgesia); format: in vivo; settings: mice, oral administration (p.o.), 3-30 mg/kg, dose- and time-dependent

SMILES: CC1(C(=O)N[C@H]2CNC2=O)CCCCC1 [Example 13, 1-Methyl-N-[(3S)-2-oxoazetidin-3-yl]-cyclohexane-carboxamide]
- r-NAAA UPLC/MS assay (n.a.) (r-NAAA): n.a. (n.a. = <10% inhib.@100 μM)

SMILES: O=C(CCCCCC1CCCCC1)N[C@H]1CNC1=O [Example 17, 6-Cyclohexyl-N-[(3S)-2-oxoazetidin-3-yl]-hexanamide]
- IC50 (r-NAAA): 130 nM
- IC50 (human NAAA): 275 nM

SMILES: CCCCCCCCCC(=O)N[C@H]1CNC1=O [Example 23, N-[(3S)-2-Oxoazetidin-3-yl]-decanamide]
- IC50 (human NAAA): 86 nM
- inhibition at 1 µM [1]: 70%

SMILES: O=C(CCCCCCC1CCCCC1)N[C@H]1CNC1=O [Example 30, 7-Cyclohexyl-N-[(3S)-2-oxoazetidin-3-yl]-heptanamide]
- IC50 (human NAAA): 210 nM
- inhibition at 1 µM [1]: 45%

SMILES: CCCCCCCCC(=O)N(C)[C@H]1CNC1=O [Example 27, N-Methyl-N-[(3S)-2-Oxoazetidin-3-yl]-nonanamide]
- inhibition at 3 µM (r-NAAA): 40%
- inhibition at 2.5 µM (human NAAA; @ 2.5 μM, read-out: h-NAAA Fluorogenic assay % inhib.): 20%

SMILES: O=C(CCCCC1CCCCC1)N[C@H]1CNC1=O [Example 16, 5-Cyclohexyl-N-[(3S)-2-oxoazetidin-3-yl]-pentanamide]
- IC50 (r-NAAA): 1000 nM

SMILES: CC1(C(=O)N[C@@H]2CNC2=O)CCCCC1 [Example 14, 1-Methyl-N-[(3R)-2-oxoazetidin-3-yl]-cyclohexane-carboxamide]
- r-NAAA UPLC/MS assay (n.a.) (r-NAAA): n.a. (n.a. = <10% inhib.@100 μM)

SMILES: CCCCC/C=C\CC(=O)N[C@H]1CNC1=O [Example 6, (Z)—N-[(3S)-2-Oxoazetidin-3-yl]-non-3-enamide]
- IC50 (r-NAAA): 680 nM
- IC50 (human NAAA): 1940 nM

SMILES: CCCCC/C=C/CC(=O)N[C@H]1CNC1=O [Example 5, (E)-N-[(3S)-2-Oxoazetidin-3-yl]-non-3-enamide]
- IC50 (r-NAAA): 2300 nM
- IC50 (human NAAA): 1340 nM
- heat hyperalgesia [2]: markedly attenuated
- paw edema [2]: markedly attenuated

Second part, the molecule after the results:

- inhibition at 30 µM (r-NAAA): 10%
SMILES: O=C(N[C@H]1CNC1=O)c1ccc(OCc2ccccc2)cc1 [Example 11, 4-Benzyloxy-N-[(3S)-2-oxoazetidin-3-yl]-benzamide]

- inhibition at 30 µM (r-NAAA): 10%
SMILES: O=C(CCCOCc1ccccc1)N[C@@H]1CNC1=O [Example 10, 4-Benzyloxy-N-[(3R)-2-oxoazetidin-3-yl]-butanamide]

- inhibition at 3 µM (r-NAAA): 10%
SMILES: O=C(N[C@@H]1CNC1=O)c1ccc(-c2ccccc2)cc1 [Example 2, 4-Phenyl-N-[(3R)-2-oxoazetidin-3-yl]-benzamide]

- inhibition at 30 µM (r-NAAA): 20%
SMILES: O=C(C/C=C/c1ccccc1)N[C@H]1CNC1=O [Example 15, (E)-N-[(3S)-2-Oxoazetidin-3-yl]-4-phenyl-but-3-enamide]

- inhibition at 3 µM (r-NAAA): 10%
SMILES: O=C(N[C@@H]1CNC1=O)c1ccc(OCc2ccccc2)cc1 [Example 12, 4-Benzyloxy-N-[(3R)-2-oxoazetidin-3-yl]-benzamide]

- r-NAAA UPLC/MS assay (n.a.) (r-NAAA): n.a. (n.a. = <10% inhib.@100 μM)
SMILES: O=C(CCCOCc1ccccc1)N[C@H]1CNC1=O [Example 9, 4-Benzyloxy-N-[(3S)-2-oxoazetidin-3-yl]-butanamide]

- inhibition at 3 µM (r-NAAA): 30%
SMILES: O=C(CCCCCCc1ccccc1)N[C@@H]1CNC1=O [Example 8, 7-Phenyl-N-[(3R)-2-Oxoazetidin-3-yl]-heptanamide]

- inhibition at 3 µM (r-NAAA): 15%
SMILES: O=C(N[C@H]1CNC1=O)c1ccc(-c2ccccc2)cc1 [Example 1, 4-Phenyl-N-[(3S)-2-oxoazetidin-3-yl]-benzamide]
